Measured values as given in patent US7951827B2, “Synthesis and antiprotozoal activity of dicationic 3,5-diphenylisoxazoles” (The University of North Carolina at Chapel Hill, priority 2005, dated 2011).
Structures can show the parent of a compound that is named as a salt. Where two headings read alike, the source gives them in different places.

Key:
Plasmodium falciparum = assay: In vitro antiprotozoal activity against Plasmodium falciparum; assay type: cell-based; details: Plasmodium falciparum
Procedure: (§1) In vitro antiprotozoal activities, see Ismail, M. A., et al., J. Med. Chem. 46, 4761-4769 (2003), and cytotoxicity were measured following established protocols, see Balz, T., et al., EMBO J., 4, 1273-1277 (1985); Räz. B., et al., Acta Trop., 68:139-147 (1997); and Sperandeo, N. R. et al., Chem. Biochem., 4, 69-73 (2003). […] Other positive controls employed were melarsoprol (against T. brucei), chloroquine, and artemisinin (against P. falciparum), and podophyllotoxin (against VERO cells).

[1] = test system: Trypanosoma brucei brucei; assay: In vitro antiprotozoal activity against Trypanosoma brucei brucei; assay type: cell-based
Procedure: as §1

[2] = Cytotoxicity to VERO cells; assay type: cell-based, African green monkey (Cercopithecus Aethiops); details: African green monkey (Cercopithecus aethiops)
Procedure: as §1

[3] = Table 1, read-out: IC50 (μM) Plasmodium falciparum
[4] = Trypanosoma brucei, Table 1, read-out: IC50 (μM) Trypanosoma brucei brucei
[5] = IC50 (μM) Cytotoxicity VERO cells
[6] = Trypanosoma brucei, read-out: IC50 values against T. brucei brucei
[7] = read-out: antiplasmodial IC50 values (P. falciparum)

Structure (SMILES): N=C(N)c1ccc(-c2cc(-c3ccccc3)on2)cc1 (as salt: hydrochloride) [Compound 2, 3-(4-Amidinophenyl)-5-phenylisoxazole]
- melting point: 287 to 292 °C

Structure (SMILES): C[C@@H]1CC[C@H]2[C@@H](C)C(=O)O[C@@H]3O[C@@]4(C)CC[C@@H]1[C@]32OO4 [Artemisinin, reference compound]
- IC50 (Plasmodium falciparum; [3]): 0.0067 µM

Structure (SMILES): CCN(CC)CCCC(C)Nc1ccnc2cc(Cl)ccc12 (stereo not drawn) [Chloroquine, reference compound]
- IC50 (Plasmodium falciparum; read-out: IC50 (μM) Plasmodium falciparum): 0.104 µM

Structure (SMILES): Cl.N=C(N)c1ccc(-c2cc(-c3ccccc3)no2)cc1 [Compound 1, 5-(4-Amidinophenyl)-3-phenylisoxazole hydrochloride]
- IC50 [1, 4]: 1.72 µM
- IC50 (Plasmodium falciparum; [3]): 3.3 µM
- IC50 [2, 5]: 19.1 µM
- melting point: 262 to 265 °C

Structure (SMILES): N=C(N)c1ccc(-c2cc(-c3ccccc3)on2)cc1 [Compound 2, 3-(4-Amidinophenyl)-5-phenylisoxazole]
- IC50 [1, 4]: 1.12 µM
- IC50 (Plasmodium falciparum; [3]): 3.3 µM
- IC50 [2, 5]: 18.5 µM

Structure (SMILES): N=C(N)c1ccc(-c2cc(-c3ccc(C(=N)N)cc3)on2)cc1 [Compound 3, 3,5-Bis(4-amidinophenyl)isoxazole dihydrochloride]
- IC50 [1, 4]: 0.0051 µM
- IC50 [1, 6]: 0.0035 to 0.009 µM
- IC50 ([1]; dihydrochloride, read-out: IC50 values against T. brucei brucei): 0.0051 µM
- IC50 (Plasmodium falciparum; [3]): 0.0226 µM
- IC50 [2, 5]: 2.13 µM

Structure (SMILES): Cl.Cl.N=C(N)c1ccc(-c2cc(-c3ccc(C(=N)N)cc3[N+](=O)[O-])on2)cc1 [Compound 6, 5-(4-Amidino-2-nitrophenyl)-3-(4-amidinophenyl)isoxazole dihydrochloride]
- IC50 [1, 4]: 0.0139 µM
- IC50 (Plasmodium falciparum; [3]): 0.0149 µM
- IC50 (Plasmodium falciparum; [7]): 0.008 to 0.03 µM
- IC50 [2, 5]: 15.8 µM
- melting point: > 350 °C (dec.)

Structure (SMILES): Cl.Cl.N=C(N)c1ccc(-c2cc(-c3ccc(C(=N)N)cc3Cl)on2)cc1 [Compound 7, 5-(4-Amidino-2-chlorophenyl)-3-(4-amidinophenyl)isoxazole dihydrochloride]
- IC50 [1, 4]: 0.0155 µM
- IC50 (Plasmodium falciparum; [3]): 0.0079 µM
- IC50 (Plasmodium falciparum; [7]): < 0.008 µM
- IC50 [2, 5]: 41 µM
- melting point: > 350 °C (dec.)

Structure (SMILES): Cl.Cl.N=C(N)c1ccc(-c2cc(-c3ccc(C(=N)N)cc3[N+](=O)[O-])no2)cc1 [Compound 9, 3-(4-Amidino-2-nitrophenyl)-5-(4-amidinophenyl)isoxazole dihydrochloride]
- IC50 [1, 4]: 0.0324 µM
- IC50 (Plasmodium falciparum; [3]): 0.0401 µM
- IC50 [2, 5]: 22.2 µM
- melting point: 350 °C (dec.)

Structure (SMILES): N=C(N)c1ccc(-c2cc(-c3ccc(C(=N)N)cc3Cl)no2)cc1 [Compound 10, 3-(4-Amidino-2-chlorophenyl)-5-(4-amidinophenyl)isoxazole dihydrochloride]
- IC50 [1, 4]: 0.0232 µM
- IC50 (Plasmodium falciparum; [3]): 0.0555 µM
- IC50 [2, 5]: 5.69 µM

Structure (SMILES): N=C(N)c1ccc(-c2cc(-c3cccc(C(=N)N)c3)no2)cc1 [Compound 13, 3-(3-Amidinophenyl)-5-(4-amidinophenyl)isoxazole dihydrochloride]
- IC50 [1, 4]: 0.0063 µM
- IC50 [1, 6]: 0.0035 to 0.009 µM
- IC50 (Plasmodium falciparum; [3]): 0.0578 µM
- IC50 (Plasmodium falciparum; [7]): 0.0578 µM
- IC50 [2, 5]: 24.1 µM

Structure (SMILES): Cl.Cl.N=C(N)c1cccc(-c2cc(-c3ccc(C(=N)N)cc3[N+](=O)[O-])on2)c1 [Compound 16, 5-(4-Amidino-2-nitrophenyl)-3-(3-amidinophenyl)isoxazole dihydrochloride]
- IC50 [1, 4]: 0.009 µM
- IC50 [1, 6]: 0.0035 to 0.009 µM
- IC50 (Plasmodium falciparum; [3]): 0.0259 µM
- IC50 (Plasmodium falciparum; [7]): 0.008 to 0.03 µM
- IC50 [2, 5]: 48 µM
- melting point: 225 °C

Structure (SMILES): Cl.Cl.N=C(N)c1cccc(-c2cc(-c3ccc(C(=N)N)cc3Cl)on2)c1 [Compound 17, 5-(4-Amidino-2-chlorophenyl)-3-(3-amidinophenyl)isoxazole dihydrochloride]
- IC50 [1, 4]: 0.0063 µM
- IC50 [1, 6]: 0.0035 to 0.009 µM
- IC50 (Plasmodium falciparum; [3]): 0.0187 µM
- IC50 (Plasmodium falciparum; [7]): 0.008 to 0.03 µM
- IC50 [2, 5]: 82.7 µM
- melting point: 242 to 245 °C

Structure (SMILES): Cl.Cl.N=C(N)c1ccc(-c2cc(-c3cc(C(=N)N)ccc3Cl)no2)cc1 [Compound 20, 3-(5-Amidino-2-chlorophenyl)-5-(4-amidinophenyl)isoxazole dihydrochloride]
- IC50 [1, 4]: 0.0212 µM
- IC50 (Plasmodium falciparum; [3]): 0.0071 µM
- IC50 (Plasmodium falciparum; [7]): < 0.008 µM
- IC50 [2, 5]: 5.67 µM
- melting point: 348 °C

Structure (SMILES): Cl.Cl.N=C(N)c1ccc(-c2cc(-c3cccc(C(=N)N)c3)on2)cc1 [Compound 22, 3-(4-Amidinophenyl)-5-(3-amidinophenyl)isoxazole di hydrochloride]
- IC50 [1, 4]: 0.0035 µM
- IC50 [1, 6]: 0.0035 to 0.009 µM
- IC50 (Plasmodium falciparum; [3]): 0.0025 µM
- IC50 [2, 5]: 31.2 µM
- melting point: 336 to 338 °C

Structure (SMILES): Cl.Cl.N=C(N)c1ccc(-c2cc(-c3cc(C(=N)N)ccc3Cl)on2)cc1 [Compound 25, 5-(5-Amidino-2-chlorophenyl)-3-(4-amidinophenyl)isoxazole dihydrochloride]
- IC50 [1, 4]: 0.0209 µM
- IC50 (Plasmodium falciparum; [3]): 0.0035 µM
- IC50 (Plasmodium falciparum; [7]): < 0.008 µM
- IC50 [2, 5]: 71.4 µM
- melting point: 356 to 358 °C (dec.)

Structure (SMILES): COc1ccc(C(=N)N)cc1-c1cc(-c2ccc(C(=N)N)cc2)no1.Cl.Cl [Compound 26, 5-(5-Amidino-2-methoxyphenyl)-3-(4-amidinophenyl)isoxazole dihydrochloride]
- IC50 [1, 4]: 0.0043 µM
- IC50 [1, 6]: 0.0035 to 0.009 µM
- IC50 (Plasmodium falciparum; [3]): 0.0116 µM
- IC50 (Plasmodium falciparum; [7]): 0.008 to 0.03 µM
- IC50 [2, 5]: 52.8 µM
- melting point: 240 to 242 °C

Structure (SMILES): Cl.Cl.N=C(N)c1cccc(-c2cc(-c3ccc(C(=N)N)cc3Cl)no2)c1 [Compound 28, 3-(4-Amidino-2-chlorophenyl)-5-(3-amidinophenyl)isoxazole dihydrochloride]
- IC50 [1, 4]: 0.0116 µM
- IC50 (Plasmodium falciparum; [3]): 0.0141 µM
- IC50 (Plasmodium falciparum; [7]): 0.008 to 0.03 µM
- IC50 [2, 5]: 87.4 µM
- melting point: 210 °C (dec.)

Structure (SMILES): Cl.Cl.N=C(N)c1cccc(-c2cc(-c3cc(C(=N)N)ccc3[N+](=O)[O-])on2)c1 [Compound 35, 5-(5-Amidino-2-nitrophenyl)-3-(3-amidinophenyl)isoxazole dihydrochloride]
- IC50 [1, 4]: 1.63 µM
- IC50 (Plasmodium falciparum; [3]): 0.334 µM
- IC50 [2, 5]: 9.8 µM
- melting point: 222 °C (dec.)

Structure (SMILES): N=C(N)c1cccc(-c2cc(-c3cc(C(=N)N)ccc3Cl)no2)c1 [Compound 39, 3-(5-Amidino-2-chlorophenyl)-5-(3-amidinophenyl)isoxazole dihydrochloride]
- IC50 [1, 4]: 0.0463 µM
- IC50 (Plasmodium falciparum; [3]): 0.0306 µM
- IC50 [2, 5]: 55.5 µM

Structure (SMILES): COc1ccc(C(=N)N)cc1-c1cc(-c2cccc(C(=N)N)c2)on1.Cl.Cl [Compound 40, 3-(5-Amidino-2-methoxyphenyl)-5-(3-amidinophenyl)isoxazole dihydrochloride]
- IC50 [1, 4]: 0.027 µM
- IC50 (Plasmodium falciparum; [3]): 0.0174 µM
- IC50 (Plasmodium falciparum; [7]): 0.008 to 0.03 µM
- IC50 [2, 5]: 215 µM
- melting point: 210 °C (dec.)

Structure (SMILES): COc1ccc(C(=N)N)cc1-c1cc(-c2cc(C(=N)N)ccc2OC)on1.Cl.Cl [Compound 41, 3,5-Bis(5-amidino-2-methoxyphenyl)isoxazole dihydrochloride]
- IC50 [1, 4]: 0.0042 µM
- IC50 [1, 6]: 0.0035 to 0.009 µM
- IC50 (Plasmodium falciparum; [3]): 0.0211 µM
- IC50 (Plasmodium falciparum; [7]): 0.008 to 0.03 µM
- IC50 [2, 5]: 79.9 µM
- melting point: 240 °C (dec.)

Structure (SMILES): COc1ccc(C(=N)NC(C)C)cc1-c1cc(-c2cc(C(=N)NC(C)C)ccc2OC)on1.Cl.Cl [Compound 42, 3,5-Bis[5-(N-isopropyl)amidino-2-methoxyphenyl]isoxazole dihydrochloride]
- IC50 [1, 4]: 0.374 µM
- IC50 (Plasmodium falciparum; [3]): 0.0932 µM
- IC50 [2, 5]: 21.7 µM
- melting point: 185 °C (dec.)

Structure (SMILES): Nc1nc(N)nc(Nc2ccc([As]3SCC(CO)S3)cc2)n1 (stereo not drawn) [Melarsoprol, reference compound]
- IC50 ([1]; Trypanosoma brucei, read-out: IC50 (μM) Trypanosoma brucei brucei): 0.00637 µM

Structure (SMILES): COc1cc([C@@H]2c3cc4c(cc3[C@H](O)[C@H]3COC(=O)[C@H]23)OCO4)cc(OC)c1OC [Podophyllotoxin, reference compound]
- IC50 ([2]; Table 1, read-out: IC50 (μM) Cytotoxicity VERO cells): 0.0186 µM
